From patent publication US20070004724A1, “(+)-(2S,3s)-2-(3-chlorophenyl)-3,5,5-trimethyl-2-morpholinor for treating anxiety” (priority 2003, published 2007)
Counter-ions that a name gives are not always drawn.

What was measured:
[1] = test system: Male Sprague Dawley rats; assay: Social interaction test in rats, chronic study; assay type: in vivo, rat; details: for Time spent in active social interaction / Number of line crossings: average±s.e.; for Number of line crossings: motor activity
Procedure: (§1) Social Interaction Test in Rats [Animal Models for Predicting Clinical Efficacy of Anxiolytic Drugs: Social Behaviour. Neuropsychobiology. 13 (1-2) 55-62, 1985]
(§2) Male Sprague Dawley rats (350-400 g at day of test, Charles River, Italy) were individually housed for five days before the test session. The 15 minutes social interaction test was performed between 9:00 to 14:00. Pairs of rats, weight and treatment matched, were placed in the test arena under high light condition. Active social interaction (sniffing, following, grooming, biting, boxing, crawling over and under) and motor activity, in terms of line crossing were scored by an observer blind to the drug treatment. The animals were treated orally with vehicle (2 ml/kg) or with the hydrochloride salt of the compound of formula (I) at 3, 10 and 30 mg/kg, 45 minutes prior to the test (acute study), or for 20 days twice a day and with a final treatment given on day 21, the last treatment given 45 minutes before the test (chronic study). An additional group of rats (positive control group) received a single oral dose of chlordiazepoxide (CDP) 4 mg/kg 1 hour before testing.
The results of the chronic study are given below in Table 3 (values given as average±s.e.), with the data for social interaction also illustrated in FIG. 1.

[2] = test system: cell-lines expressing human monoamine transporters; assay: Compound-induced cytotoxicity in the transporter cell-lines; assay type: cell-based; details: at any of the concentrations causing reuptake inhibition
[3] = test system: CD-1 mice; assay: Light & dark box test in mice; assay type: in vivo; details: 3 mg/kg oral, 30 minutes before test
Description: Light & Dark Box Test in Mice [Costall B. Jones B J. Kelly […]. and Tomkins D M. Exploration of Mice in a Black and White Test Box: Validation as a Model of Anxiety. Pharmacology, Biochemistry & Behavior. 32 (3):777-85, 1989] The light-dark box test consists of a Perspex box which is divided into two compartments, two-thirds of which is painted white and the remaining third is painted black. Mice are able to move freely between the two compartments using a small gap in the wall separating the two compartments. The floor is marked with lines, which provided an index of motor activity of the animals (number of line crossings). A white light (60 W) is placed over the white compartment of the box to provide a brightly-lit area which the animals find aversive. Mice tend to escape from this area preferring to remain in the black area, returning only occasionally to explore the white area. […] CD-1 mice (25-30 g, Charles River, Italy) were placed individually into the centre of the white side of the black/white test box for the 5 min test period and the behaviour of the mice was recorded by remote video recording. Behaviour of the mice was assessed subsequently from the tape recordings by an observer who was unaware of the animals' treatment. Different parameters were assessed to estimate both the anxiolytic and the sedative effects of the compound tested. […]

[4] = target: T1, serotonin uptake, synaptosomes from rat hypothalamus (Rattus norvegicus, UniProt P31652); assay: In vitro synaptosomal uptake of [3H]-serotonin; assay type: biochemical
T1 construct: Synaptosomes for use in obtaining in vitro uptake data were prepared from hypothalamus or striatum; from tissue; host or cells: rat hypothalamus synaptosomes
T1 sequence (P31652 whole entry): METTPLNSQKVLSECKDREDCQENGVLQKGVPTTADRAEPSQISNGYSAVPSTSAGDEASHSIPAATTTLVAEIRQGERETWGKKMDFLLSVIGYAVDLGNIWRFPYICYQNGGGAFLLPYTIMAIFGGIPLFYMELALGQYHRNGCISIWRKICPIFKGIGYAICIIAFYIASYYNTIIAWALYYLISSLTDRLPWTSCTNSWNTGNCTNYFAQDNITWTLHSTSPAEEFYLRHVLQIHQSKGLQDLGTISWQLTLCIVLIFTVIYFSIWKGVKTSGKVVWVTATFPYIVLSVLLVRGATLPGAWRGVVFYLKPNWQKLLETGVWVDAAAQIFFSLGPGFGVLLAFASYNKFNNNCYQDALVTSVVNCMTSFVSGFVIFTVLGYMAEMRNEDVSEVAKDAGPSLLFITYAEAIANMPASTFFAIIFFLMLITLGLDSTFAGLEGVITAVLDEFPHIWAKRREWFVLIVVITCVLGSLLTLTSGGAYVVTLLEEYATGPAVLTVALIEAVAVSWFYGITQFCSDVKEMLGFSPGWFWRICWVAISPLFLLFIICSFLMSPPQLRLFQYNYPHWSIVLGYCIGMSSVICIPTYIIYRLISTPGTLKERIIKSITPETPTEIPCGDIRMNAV
Description: Similarities and differences. Molecular Pharmacology, 21: p.

[5] = test system: Male Sprague Dawley rats; assay: Social interaction test in rats, acute study; assay type: in vivo; details: acute rat social interaction study
Procedure: as §1, §2
The results for social interaction in the acute study are illustrated in FIG. 2.

[6] = target: T2, dopamine (DA) uptake, synaptosomes from rat caudoputamen (Rattus norvegicus, UniProt P23977); assay: In vitro synaptosomal uptake of [3H]-dopamine; assay type: biochemical; details: [3H]-dopamine uptake, mean ± SEM of 3 experiments
T2 construct: Synaptosomes for use in obtaining in vitro uptake data were prepared from hypothalamus or striatum; from tissue; host or cells: rat caudoputamen (striatum) synaptosomes
T2 sequence (P23977 whole entry): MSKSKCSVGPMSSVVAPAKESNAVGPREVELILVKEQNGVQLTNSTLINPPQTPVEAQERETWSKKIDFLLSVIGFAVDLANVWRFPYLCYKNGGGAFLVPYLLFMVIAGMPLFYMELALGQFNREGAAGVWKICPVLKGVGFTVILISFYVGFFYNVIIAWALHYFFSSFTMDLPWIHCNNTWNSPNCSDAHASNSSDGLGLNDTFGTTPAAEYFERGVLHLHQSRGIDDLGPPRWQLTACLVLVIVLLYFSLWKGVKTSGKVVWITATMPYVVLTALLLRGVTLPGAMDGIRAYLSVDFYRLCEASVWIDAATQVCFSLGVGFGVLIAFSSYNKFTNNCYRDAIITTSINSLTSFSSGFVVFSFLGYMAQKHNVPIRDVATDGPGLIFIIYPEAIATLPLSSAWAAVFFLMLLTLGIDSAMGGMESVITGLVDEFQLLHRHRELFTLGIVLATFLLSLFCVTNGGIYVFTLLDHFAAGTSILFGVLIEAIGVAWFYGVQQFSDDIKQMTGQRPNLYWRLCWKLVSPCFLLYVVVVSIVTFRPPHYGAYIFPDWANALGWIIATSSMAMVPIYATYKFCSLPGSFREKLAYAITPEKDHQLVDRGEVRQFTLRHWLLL
Procedure: In vitro uptake was determined, as reported previously, using synaptosomes prepared from rat caudoputamen (for dopamine uptake) and hypothalamus (for NA and serotonin uptake) using [^3H]-dopamine, [^3H]-NA and [^3H]-serotonin as transport substrates, respectively. See Eckhardt, S. B., R. A. Maxwell, and R. M. Ferris, A Structure-Activity Study of the Transport Sites for the Hypothalamic and Striatal Catecholamine Uptake Systems. Similarities and differences. Molecular Pharmacology, 21: p. 374-9, 1982.
Synaptosomes for use in obtaining in vitro uptake data were prepared from hypothalamus or striatum by gently homogenizing the tissue in a 0.3 M sucrose/25 mM Tris pH 7.4 buffer containing iproniazid phosphate to inhibit monoamine oxidase. The homogenate was centrifuged at 1100×g at 4° C. for 10 min and the supernatant was used for uptake studies. […] Under these conditions uptake was linear with respect to both for substrate and tissue (with <5% total substrate transported). Non-specific uptake was defined as uptake at 0° C. [^3H]-substrate, which had been transported into synaptosomes, was separated from free [^3H]-substrate by filtration over GF/B filters and washing with cold Krebs-Henseleit buffer. The filters were counted for tritum in a liquid scintillation spectrometer.

[7] = chronic study, at 3 and 10 mg/kg oral

## C[C@@H]1NC(C)(C)CO[C@@]1(O)c1cccc(Cl)c1 [Formula (I). HCl, (+)-(2S,3S)-2-(3-chlorophenyl)-3,5,5-trimethyl-2-morpholinol hydrochloride]
[1]; chronic study, 3 mg/kg oral twice a day 20 days + day 21, 45 min before test, n=14
  Time spent in active social interaction: 114.0 ± 11.5 s
[1]; chronic study, 10 mg/kg oral twice a day 20 days + day 21, 45 min before test, n=10
  Time spent in active social interaction: 126.4 ± 13.8 s
[1]; chronic study, 30 mg/kg oral twice a day 20 days + day 21, 45 min before test, n=14
  Time spent in active social interaction: 97.6 ± 8.7 s
[1]; chronic study, at 30 mg/kg oral
  effect on social interaction: lack of effect on social interaction
[1]; chronic study, at 30 mg/kg oral, compared to vehicle
  effect on locomotor activity: significant reduction in locomotor activity
[1]; [7]
  anxiolytic-like effect in social interaction test: able to induce an anxiolytic-like effect
  effect on locomotor activity: without any significant effects on locomotor activity
[1]; chronic study, 3 mg/kg oral, n=14
  Number of line crossings: 587.0 ± 29.1
[1]; chronic study, 10 mg/kg oral, n=10
  Number of line crossings: 571.0 ± 44.1
[1]; chronic study, 30 mg/kg oral, n=14
  Number of line crossings: 476.2 ± 42.6
[2]
  cytotoxicity: No cytotoxicity was observed
[3]
  anxiolytic-like effect in light & dark box test: able to induce an anxiolytic-like effect

## CNC1=Nc2ccc(Cl)cc2C(c2ccccc2)=[N+]([O-])C1 [CDP, chlordiazepoxide, reference compound]
[1]; positive control, single oral dose 4 mg/kg, n=14
  Number of line crossings: 560.1 ± 29.6
[1]; positive control, single oral dose 4 mg/kg
  Time spent in active social interaction, % (change relative to vehicle): 53.2%
[1]; positive control, single oral dose 4 mg/kg 1 hour before testing, n=14
  Time spent in active social interaction: 124.4 ± 10.7 s

## C[C@@H]1NC(C)(C)CO[C@@]1(O)c1cccc(Cl)c1 [Formula (I), (+)-(2S,3S)-2-(3-chlorophenyl)-3,5,5-trimethyl-2-morpholinol]
[4]
  IC50: > 30 µM
[4]; at 30 μM
  inhibition of serotonin uptake: no inhibition
[5]
  anxiogenic activity: lack of anxiogenic activity
[6]
  IC50: 9.3 ± 0.41 µM
